{"source": "patent US11267780B2", "about": "“Compound for modulating DDAH and ADMA levels, as well as methods of using thereof to treat disease” (THE TRUSTEES OF INDIANA UNIVERITY, priority 2018, dated 2022)", "key": {"[1]": {"test_system": "collagen 1", "experiment": "Collagen western blot analysis in myofibroblast like smooth muscle cells", "format": "cell-based", "details": "in response to TGF-beta, 48 hours", "description": "(§1) DDAH and Collagen western blot analysis. Human umbilical vein endothelial cells (HUVEC), retinal endothelial cells and vascular smooth muscle cells from Lonza were transferred to 6 well plates at a density of 4.0×10^5/well and incubated overnight. Various concentrations of test compounds were then added. After 24 hours, medium was removed, the cells were scraped and collected in 50 μL of lysis buffer containing 50 mM Tris-HCl, 0.25% deoxycholic acid, 1% NP-40, 1 mM EDTA and protease inhibitor cocktails. Cell extract was subjected to SDS polyacrylamide gel electrophoresis. Proteins from the 12% polyacrylamide gels were transferred to PVDF membranes for westerns and blotted with DDAH or collagen 1 antibodies from Abcam.\nCells were treated with VN-317 in the presence or absence of TGF-beta. After 48 hours, cells were extracted in 50 ul lysis buffer and cell extract was subjected to SDS gel electrophoresis. Proteins from the 12% polyacrylamide gels were transferred to PVDF membranes for westerns and blotted collagen 1a antibodies from Abcam."}, "[2]": {"test_system": "DDAH-1 protein", "experiment": "DDAH western blot analysis in human pulmonary artery smooth muscle cells", "format": "cell-based", "details": "24 hours", "description": "as §1\n(§2) Expression of DDAH was determined in human pulmonary artery smooth muscle cells (FIG. 1A) and human retinal microvascular endothelial cells (FIG. 1B). Cells were treated with different concentrations of VN-317. After 24 hours, cells were extracted in lysis buffer as described under methods. Extracts were subjected to SDS gel electrophoresis. Proteins from SDS gel were transferred to PVDF membrane and for western blotting using DDAH-1 antibodies. […] Therese data illustrate differential modulation of DDAH by VN-317 in different cell types."}, "[3]": {"test_system": "monocrotalin induced PAH", "experiment": "Rat model of monocrotalin induced PAH", "format": "in vivo", "details": "1 mg/kg s.c. once a day", "description": "A rat model of monocrotalin induced PAH was used for in vivo studies. Male Sprague Dawley rats about 250 g were purchased from Charles river. PAH was induced by a single s.c. injection of 60 mg/kg monocrotalin. VN-317 (1 mg/kg) or vehicle was administered subcutaneously on day one and once a day thereafter. After 6 weeks, the disease development was determined by pulmonary artery (PA) pressure measurements, echocardiography, and histology. PA pressure was determined by right heart catheterization using a 1.4-F micromanometer-tipped Millar catheter with fluoroscopy guidance. Transthoracic echocardiography was performed using a GE vivid i with 5.0-13.0 MHz il2L-RS linear array transducer. Pulmonary artery acceleration time (PAAT) was measured using pulse-wave Doppler echocardiography with the sample volume centrally positioned in the PA distal to the pulmonary valve. M-mode was applied to measure the right ventricular cavity thickness during end diastole using the parasternal long-axis view obtained from the right side of the rat. Tissue and blood samples were collected at termination. Tissues were fixed in 10% formalin, embedded in paraffin, and then processed for histomorphometry. Macrophage in lung tissues were determined by immunostaining using CD68 antibodies."}, "[4]": {"test_system": "DDAH-1 protein", "experiment": "DDAH western blot analysis in human retinal microvascular endothelial cells", "format": "cell-based", "details": "24 hours", "description": "as §1, §2"}, "[5]": {"test_system": "DDAH promoter", "experiment": "DDAH promoter activation assay (DDAH promoter-Luciferase reporter)", "format": "cell-based", "description": "DDAH promoter activation assay. Activation of DDAH promoter was determined using a DDAH promoter-Luciferase reporter assay. DDAH promoter DNA sequence was cloned in pGL4.10 luciferase reporter plasmid. For transfection of HEK-293 cells, the cells were seeded in six well plates at a density of 2.0×10^5 cells/well. After 24 hours, the cells were transfected with the DDAH promoter plasmid by adding 200 ng DNA/well and incubated for 24 hours. Transfected cells were then transferred to 96 well plates at 50,000 cells/well and incubated overnight with various concentrations of the test compounds. The medium was removed from the wells and 20 μL of lysis reagent was added. After 5 min, 100 μL Luciferase assay reagent was added, and luminescence was measured."}, "[6]": {"details": "after 6 weeks, echocardiography"}, "[7]": {"details": "Table 1, stilbene-based ADMA-modulating agents"}, "[8]": {"details": "Table 3, other ADMA-lowering agents"}, "[9]": {"details": "Table 2, ADMA-lowering agents including heterocycles"}}, "note": "Entries after “also recorded” stand apart in the source; their conditions may differ.", "data": [{"smiles": "Cc1cc(O)ccc1/C=C/c1cccc(C(=O)O)c1", "note": "[VN-317, (E)-3-(4-hydroxy-2-methylstyryl)benzoic acid]", "values": [{"measurement": "collagen production (western blot)", "setting": "[1]", "result": "reduced"}, {"measurement": "DDAH-1 protein expression (western blot)", "setting": "[2]", "result": "enhancing; also recorded: enhanced"}, {"measurement": "inflammation in the lung (CD68 immuno-staining)", "setting": "[3]; after 6 weeks", "result": "dramatic reduction; also recorded: reduced"}, {"measurement": "pulmonary artery medial thickening (histology)", "setting": "[3]; after 6 weeks", "result": "open artery; also recorded: reduced"}, {"measurement": "pulmonary artery pressure (PAP)", "setting": "[3]; after 6 weeks", "result": "significantly reduced"}, {"measurement": "vascular disease in the lung", "setting": "[3]; after 6 weeks", "result": "reduced"}, {"measurement": "pulmonary artery blood acceleration time (PAAT)", "setting": "[3]; [6]", "result": "increased"}, {"measurement": "right ventricle cavity thickness", "setting": "[3]; [6]", "result": "reduced"}, {"measurement": "body weight loss", "setting": "[3]; over 6 weeks", "result": "prevented"}, {"measurement": "mortality", "setting": "[3]; until week 6, N=6", "result": "none and reduced"}, {"measurement": "DDAH-1 protein expression (western blot)", "setting": "[4]", "result": "reducing; also recorded: reduced"}, {"measurement": "EC50", "setting": "[5]; [7]", "result": 7, "unit": "nM"}]}, {"smiles": "O=C(O)c1cccc(/C=C/c2ccc(O)cc2)c1", "note": "[VN-328, (E)-3-(4-hydroxystyryl)benzoic acid]", "values": [{"measurement": "EC50", "setting": "[5]; [7]", "result": 18.6, "unit": "nM"}]}, {"smiles": "Cc1ccccc1/C=C/c1cccc(C(=O)O)c1", "note": "[VN-329, (E)-3-(2-methylstyryl)benzoic acid]", "values": [{"measurement": "EC50", "setting": "[5]; [7]", "result": 8.7, "unit": "nM"}]}, {"smiles": "O=C(O)c1cccc(/C=C/c2ccccc2)c1", "note": "[VN-330, (E)-3-styrylbenzoic acid]", "values": [{"measurement": "EC50", "setting": "[5]; [7]", "result": 53, "unit": "nM"}]}, {"smiles": "COc1ccc(/C=C/c2cccc(C(=O)O)c2)c(C)c1", "note": "[VN-333, (E)-3-(4-methoxy-2-methylstyryl)benzoic acid]", "values": [{"measurement": "EC50", "setting": "[5]; [7]", "result": 1.8, "unit": "nM"}]}, {"smiles": "O=C(O)c1cccc(/C=C\\c2ccccc2)c1", "note": "[VN-339, (Z)-3-styrylbenzoic acid]", "values": [{"measurement": "EC50 nM", "setting": "[5]; [7]", "result": "Ambiguous"}]}, {"smiles": "COc1ccc(/C=C\\c2cccc(C(=O)O)c2)c(C)c1", "note": "[VN-342, (Z)-3-(4-methoxy-2-methylstyryl)benzoic acid]", "values": [{"measurement": "EC50", "setting": "[5]; [7]", "result": 81.5, "unit": "nM"}]}, {"smiles": "O=C(O)c1cccc([C@H]2C[C@@H]2c2ccccc2)c1", "note": "[VN-347, 3-((1S,2S)-2-phenylcyclopropyl)benzoic acid]", "values": [{"measurement": "EC50", "setting": "[5]; [8]", "result": 3.3, "unit": "nM"}]}, {"smiles": "O=C(O)c1cccc(/C=C/c2cocn2)c1", "note": "[VN-351, (E)-3-(2-(oxazol-4-yl)vinyl)benzoic acid]", "values": [{"measurement": "EC50", "setting": "[5]; [9]", "result": 87, "unit": "nM"}]}, {"smiles": "O=C(O)c1cccc(/C=C/c2cccnc2)c1", "note": "[VN-353, (E)-3-(2-(pyridin-3-yl)vinyl)benzoic acid]", "values": [{"measurement": "EC50", "setting": "[5]; [9]", "result": 58, "unit": "nM"}]}, {"smiles": "O=C(O)c1cccc(/C=C/c2cccnc2)c1", "note": "[VN-354, (E)-3-(2-(pyridin-3-yl)vinyl)benzoic acid]", "values": [{"measurement": "EC50", "setting": "[5]; [9]", "result": 672, "unit": "nM"}]}, {"smiles": "O=C(O)c1cccc(/C=C/c2ccncc2)c1", "note": "[VN-355, (E)-3-(2-(pyridin-4-yl)vinyl)benzoic acid]", "values": [{"measurement": "EC50", "setting": "[5]; [9]", "result": 651, "unit": "nM"}]}, {"smiles": "O=C(O)c1cc(/C=C/c2ccccc2)ccc1O", "note": "[VN-359, (E)-2-hydroxy-5-styrylbenzoic acid]", "values": [{"measurement": "EC50", "setting": "[5]; [7]", "result": 0.16, "unit": "nM"}]}, {"smiles": "O=C(O)c1cccc(/C=C/c2cccc(OCCN3CCOCC3)c2)c1", "note": "[VN-362, (E)-3-(3-(2-morpholinoethoxy)styryl)benzoic acid]", "values": [{"measurement": "EC50", "setting": "[5]; [7]", "result": 1.3, "unit": "nM"}]}, {"smiles": "O=C(O)c1cccc(/C=C/c2ccc(OCCN3CCOCC3)cc2)c1", "note": "[VN-363, (E)-3-(4-(2-morpholinoethoxy)styryl)benzoic acid]", "values": [{"measurement": "EC50", "setting": "[5]; [7]", "result": 0.97, "unit": "nM"}]}, {"smiles": "O=C(O)c1cccc(/C=C/c2nccs2)c1", "note": "[VN-365, (E)-3-(2-(thiazol-2-yl)vinyl)benzoic acid]", "values": [{"measurement": "EC50", "setting": "[5]; [9]", "result": 180, "unit": "nM"}]}, {"smiles": "O=C(O)c1cccc(/C=C/c2cscn2)c1", "note": "[VN-366, (E)-3-(2-(thiazol-4-yl)vinyl)benzoic acid]", "values": [{"measurement": "EC50", "setting": "[5]; [9]", "result": 1370, "unit": "nM"}]}, {"smiles": "O=C(O)c1cccc(/C=C/c2cncs2)c1", "note": "[VN-367, (E)-3-(2-(thiazol-5-yl)vinyl)benzoic acid]", "values": [{"measurement": "EC50", "setting": "[5]; [9]", "result": 1060, "unit": "nM"}]}, {"smiles": "O=C(O)c1cccc(/C=C/c2cccs2)c1", "note": "[VN-368, (E)-3-(2-(thiophen-2-yl)vinyl)benzoic acid]", "values": [{"measurement": "EC50", "setting": "[5]; [9]", "result": 0.79, "unit": "nM"}]}, {"smiles": "O=C(O)c1cccc(/C=C/c2ccsc2)c1", "note": "[VN-369, (E)-3-(2-(thiophen-3-yl)vinyl)benzoic acid]", "values": [{"measurement": "EC50", "setting": "[5]; [9]", "result": 1.23, "unit": "nM"}]}, {"smiles": "O=C(O)c1cccc(/C=C/c2ccc(Cl)cc2)c1", "note": "[VN-371, (E)-3-(4-chlorostyryl)benzoic acid]", "values": [{"measurement": "EC50", "setting": "[5]; [7]", "result": 1.4, "unit": "nM"}]}, {"smiles": "O=C(O)c1cccc(/C=C\\c2ccc(F)cc2)c1", "note": "[VN-372, (Z)-3-(4-fluorostyryl)benzoic acid]", "values": [{"measurement": "EC50", "setting": "[5]; [7]", "result": 10.4, "unit": "nM"}]}, {"smiles": "O=C(O)c1cccc(/C=C\\c2cccs2)c1", "note": "[VN-373, (Z)-3-(2-(thiophen-2-yl)vinyl)benzoic acid]", "values": [{"measurement": "EC50", "setting": "[5]; [9]", "result": 0.76, "unit": "nM"}]}, {"smiles": "O=C(O)c1cccc([C@@H]2C[C@@H]2c2ccccc2)c1", "note": "[VN-376, 3-((1R,2S)-2-phenylcyclopropyl)benzoic acid]", "values": [{"measurement": "EC50", "setting": "[5]; [8]", "result": 527, "unit": "nM"}]}, {"smiles": "O=C(O)c1cccc(/C=C\\c2ccc(Cl)cc2)c1", "note": "[VN-379, (Z)-3-(4-chlorostyryl)benzoic acid]", "values": [{"measurement": "EC50", "setting": "[5]; [7]", "result": 3.9, "unit": "nM"}]}, {"smiles": "O=C(O)c1cccc(/C=C\\c2cocn2)c1", "note": "[VN-380, (Z)-3-(2-(oxazol-4-yl)vinyl)benzoic acid]", "values": [{"measurement": "EC50", "setting": "[5]; [9]", "result": 0.17, "unit": "nM"}]}, {"smiles": "O=C(O)c1cccc(/C=C\\c2cccnc2)c1", "note": "[VN-381, (Z)-3-(2-(pyridin-3-yl)vinyl)benzoic acid]", "values": [{"measurement": "EC50", "setting": "[5]; [9]", "result": 0.73, "unit": "nM"}]}, {"smiles": "O=C(O)c1cccc(/C=C\\c2cncs2)c1", "note": "[VN-386, (Z)-3-(2-(thiazol-5-yl)vinyl)benzoic acid]", "values": [{"measurement": "EC50", "setting": "[5]; [9]", "result": 2.8, "unit": "nM"}]}, {"smiles": "O=C(O)c1cccc(/C=C\\c2ccncc2)c1", "note": "[VN-387, (Z)-3-(2-(pyridin-4-yl)vinyl)benzoic acid]", "values": [{"measurement": "EC50", "setting": "[5]; [9]", "result": 1.7, "unit": "nM"}]}, {"smiles": "O=C(O)c1cccc(/C=C\\c2cccc(OCCN3CCOCC3)c2)c1", "note": "[VN-388, (Z)-3-(3-(2-morpholinoethoxy)styryl)benzoic acid]", "values": [{"measurement": "EC50 nM", "setting": "[5]; [7]", "result": "Ambiguous"}]}, {"smiles": "O=C(O)c1cccc(/C=C/c2ccc(F)cc2)c1", "note": "[VN-390, (E)-3-(4-fluorostyryl)benzoic acid]", "values": [{"measurement": "EC50", "setting": "[5]; [7]", "result": 3.4, "unit": "nM"}]}]}
